# Assay results taken from ChEMBL document CHEMBL3098123, “New inhibitors of cytomegalovirus DNA polymerase” (ACS Med Chem Lett, 2013).
# Assay: Inhibition of GST-tagged recombinant human cytomegalovirus DNA polymerase catalytic subunit UL54 expressed in baculovirus infected insect Sf21 cells assessed as incorporation of biotin-tagged dUTP after 30 mins by LANCE TR-FRET assay
# Design: species or system Human betaherpesvirus 5
row,Structure (SMILES),IC50 [nM]
1,CN(CC(=O)O)c1ccnc2c1cc(C(=O)NCc1ccc(Cl)cc1)c(=O)n2CC(=O)N1CC(C)(C)C1,50
2,CC1(C)CN(C(=O)Cn2c(=O)c(C(=O)NCc3ccc(Cl)cc3)cc3cc(-c4nn[nH]n4)cnc32)C1,30
3,COc1cc(N)nc2c1cc(C(=O)NCc1ccc(Cl)cc1)c(=O)n2CC(=O)N(C)CC1(CO)COC1,22
